Measurements reported in PubChem BioAssay AID2060884 (Molecular Pharmacology Branch, DTP, NCI, 2025).

Test system: NCI-H929 complex spheroids, viability % test/control
Assay: Anticancer human tumor NCI-H929 cell line growth inhibition [RAS];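 further: compound exposure lasted seven days before viability was read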;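 on viability, T/C: 100% = DMSO vehicle control viability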
Details: for IC50: curve of first compound; for viability, T/C: stronger effect = lower value
Outline: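 Agents were tested in combination matrices in half-log decrements from a top concentration at or near clinical Cmax (10 microM if undetermined). Targets were multi-cell spheroids of tumour lines plus HUVEC and MSC stromal cells.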

[1] = second compound 0.000949 µM, first compound 0.0316 µM
[2] = second compound 0.000949 µM, first compound 0.1 µM
[3] = second compound 0.000949 µM, first compound 0.316 µM
[4] = second compound 0.000949 µM, first compound 1 µM
[5] = second compound 0.000949 µM, first compound 3.16 µM
[6] = second compound 0.000949 µM, first compound 10 µM
[7] = second compound 0.003 µM, first compound 0.0316 µM
[8] = second compound 0.003 µM, first compound 0.1 µM
[9] = second compound 0.003 µM, first compound 0.316 µM
[10] = second compound 0.003 µM, first compound 1 µM
[11] = second compound 0.003 µM, first compound 3.16 µM
[12] = second compound 0.003 µM, first compound 10 µM
[13] = second compound 0.00949 µM, first compound 0.0316 µM
[14] = second compound 0.00949 µM, first compound 0.1 µM
[15] = second compound 0.00949 µM, first compound 0.316 µM
[16] = second compound 0.00949 µM, first compound 1 µM
[17] = second compound 0.00949 µM, first compound 3.16 µM
[18] = second compound 0.00949 µM, first compound 10 µM
[19] = second compound 0.03 µM, first compound 0.0316 µM
[20] = second compound 0.03 µM, first compound 0.1 µM
[21] = second compound 0.03 µM, first compound 0.316 µM
[22] = second compound 0.03 µM, first compound 1 µM
[23] = second compound 0.03 µM, first compound 3.16 µM
[24] = second compound 0.03 µM, first compound 10 µM
[25] = second compound 0.0949 µM, first compound 0.0316 µM
[26] = second compound 0.0949 µM, first compound 0.1 µM
[27] = second compound 0.0949 µM, first compound 0.316 µM
[28] = second compound 0.0949 µM, first compound 1 µM
[29] = second compound 0.0949 µM, first compound 3.16 µM
[30] = second compound 0.0949 µM, first compound 10 µM
[31] = second compound 0.3 µM, first compound 0.0316 µM
[32] = second compound 0.3 µM, first compound 0.1 µM
[33] = second compound 0.3 µM, first compound 0.316 µM
[34] = second compound 0.3 µM, first compound 1 µM
[35] = second compound 0.3 µM, first compound 3.16 µM
[36] = second compound 0.3 µM, first compound 10 µM

SMILES: CC1(O)CCCC1n1c(=O)c(C(F)F)cc2cnc(NC3CCN(S(C)(=O)=O)CC3)nc21 (stereo not drawn) + CCn1c(-c2cccnc2C(C)OC)c2c3cc(ccc31)N1CCOC(CC(NC(=O)C(C(C)C)N(C)C(=O)C3(F)CCN(C(=O)C#CC(C)(C)N(C)C)CC3)C(=O)N3CCCC(N3)C(=O)OCC(C)(C)C2)C1
- IC50 (second compound 0.000949 µM): 75.4 nM
- IC50 (second compound 0.003 µM): 76.5 nM
- IC50 (second compound 0.00949 µM): 74.3 nM
- IC50 (second compound 0.03 µM): 71 nM
- IC50 (second compound 0.0949 µM): 67.7 nM
- IC50 (second compound 0.3 µM): 62.4 nM
- viability, T/C [1]: 104%
- viability, T/C [2]: 32.6%
- viability, T/C [3]: 1.35%
- viability, T/C [4]: 2.44%
- viability, T/C [5]: 1.45%
- viability, T/C [6]: 0.12%
- viability, T/C [7]: 100%
- viability, T/C [8]: 34.8%
- viability, T/C [9]: 1.28%
- viability, T/C [10]: 2.8%
- viability, T/C [11]: 1.23%
- viability, T/C [12]: 0.1%
- viability, T/C [13]: 98.1%
- viability, T/C [14]: 33.3%
- viability, T/C [15]: 0.97%
- viability, T/C [16]: 2.52%
- viability, T/C [17]: 1.36%
- viability, T/C [18]: 0.09%
- viability, T/C [19]: 99.8%
- viability, T/C [20]: 28.9%
- viability, T/C [21]: 1.21%
- viability, T/C [22]: 2.78%
- viability, T/C [23]: 1.08%
- viability, T/C [24]: 0.11%
- viability, T/C [25]: 99.9%
- viability, T/C [26]: 24.5%
- viability, T/C [27]: 1.16%
- viability, T/C [28]: 2.55%
- viability, T/C [29]: 1.28%
- viability, T/C [30]: 0.12%
- viability, T/C [31]: 103%
- viability, T/C [32]: 13.5%
- viability, T/C [33]: 1.13%
- viability, T/C [34]: 2.31%
- viability, T/C [35]: 1.74%
- viability, T/C [36]: 0.16%

SMILES: CC(C)NCC(C(=O)N1CCN(c2ncnc3c2C(C)CC3O)CC1)c1ccc(Cl)cc1 (stereo not drawn) + CCn1c(-c2cccnc2C(C)OC)c2c3cc(ccc31)N1CCOC(CC(NC(=O)C(C(C)C)N(C)C(=O)C3(F)CCN(C(=O)C#CC(C)(C)N(C)C)CC3)C(=O)N3CCCC(N3)C(=O)OCC(C)(C)C2)C1
- IC50 (second compound 0.000949 µM): 1310 nM
- IC50 (second compound 0.003 µM): 1430 nM
- IC50 (second compound 0.00949 µM): 1640 nM
- IC50 (second compound 0.03 µM): 1450 nM
- IC50 (second compound 0.0949 µM): 1200 nM
- IC50 (second compound 0.3 µM): 986 nM
- viability, T/C [1]: 106%
- viability, T/C [2]: 96.4%
- viability, T/C [3]: 98.7%
- viability, T/C [4]: 59.4%
- viability, T/C [5]: 16.5%
- viability, T/C [6]: 2.67%
- viability, T/C [7]: 99.5%
- viability, T/C [8]: 101%
- viability, T/C [9]: 95%
- viability, T/C [10]: 65.4%
- viability, T/C [11]: 15.5%
- viability, T/C [12]: 2.08%
- viability, T/C [13]: 98.6%
- viability, T/C [14]: 97%
- viability, T/C [15]: 99%
- viability, T/C [16]: 68.7%
- viability, T/C [17]: 23.8%
- viability, T/C [18]: 2.36%
- viability, T/C [19]: 101%
- viability, T/C [20]: 100%
- viability, T/C [21]: 98.5%
- viability, T/C [22]: 67.7%
- viability, T/C [23]: 12.6%
- viability, T/C [24]: 1.6%
- viability, T/C [25]: 101%
- viability, T/C [26]: 102%
- viability, T/C [27]: 97.4%
- viability, T/C [28]: 57.4%
- viability, T/C [29]: 9.37%
- viability, T/C [30]: 1.65%
- viability, T/C [31]: 103%
- viability, T/C [32]: 103%
- viability, T/C [33]: 95.1%
- viability, T/C [34]: 49.6%
- viability, T/C [35]: 6.6%
- viability, T/C [36]: 1.34%

SMILES: CC(C)n1nc(-c2ccc3oc(N)nc3c2)c2c(N)ncnc21 + CCn1c(-c2cccnc2C(C)OC)c2c3cc(ccc31)N1CCOC(CC(NC(=O)C(C(C)C)N(C)C(=O)C3(F)CCN(C(=O)C#CC(C)(C)N(C)C)CC3)C(=O)N3CCCC(N3)C(=O)OCC(C)(C)C2)C1
- IC50 (second compound 0.000949 µM): 33.9 nM
- IC50 (second compound 0.003 µM): 38.8 nM
- IC50 (second compound 0.00949 µM): 39.4 nM
- IC50 (second compound 0.03 µM): 36.1 nM
- IC50 (second compound 0.0949 µM): 29.7 nM
- IC50 (second compound 0.3 µM): 27.1 nM
- viability, T/C (second compound 0.000949 µM, first compound 0.000316 µM): 104%
- viability, T/C (second compound 0.000949 µM, first compound 0.001 µM): 103%
- viability, T/C (second compound 0.000949 µM, first compound 0.00316 µM): 107%
- viability, T/C (second compound 0.000949 µM, first compound 0.01 µM): 101%
- viability, T/C [1]: 53.1%
- viability, T/C [2]: 2.22%
- viability, T/C (second compound 0.003 µM, first compound 0.000316 µM): 105%
- viability, T/C (second compound 0.003 µM, first compound 0.001 µM): 107%
- viability, T/C (second compound 0.003 µM, first compound 0.00316 µM): 105%
- viability, T/C (second compound 0.003 µM, first compound 0.01 µM): 98.5%
- viability, T/C [7]: 60.3%
- viability, T/C [8]: 2.31%
- viability, T/C (second compound 0.00949 µM, first compound 0.000316 µM): 101%
- viability, T/C (second compound 0.00949 µM, first compound 0.001 µM): 105%
- viability, T/C (second compound 0.00949 µM, first compound 0.00316 µM): 106%
- viability, T/C (second compound 0.00949 µM, first compound 0.01 µM): 99.8%
- viability, T/C [13]: 61.4%
- viability, T/C [14]: 1.89%
- viability, T/C (second compound 0.03 µM, first compound 0.000316 µM): 97.8%
- viability, T/C (second compound 0.03 µM, first compound 0.001 µM): 104%
- viability, T/C (second compound 0.03 µM, first compound 0.00316 µM): 106%
- viability, T/C (second compound 0.03 µM, first compound 0.01 µM): 100%
- viability, T/C [19]: 56.2%
- viability, T/C [20]: 1.72%
- viability, T/C (second compound 0.0949 µM, first compound 0.000316 µM): 98.7%
- viability, T/C (second compound 0.0949 µM, first compound 0.001 µM): 108%
- viability, T/C (second compound 0.0949 µM, first compound 0.00316 µM): 108%
- viability, T/C (second compound 0.0949 µM, first compound 0.01 µM): 100%
- viability, T/C [25]: 47.2%
- viability, T/C [26]: 1.3%
- viability, T/C (second compound 0.3 µM, first compound 0.000316 µM): 102%
- viability, T/C (second compound 0.3 µM, first compound 0.001 µM): 107%
- viability, T/C (second compound 0.3 µM, first compound 0.00316 µM): 108%
- viability, T/C (second compound 0.3 µM, first compound 0.01 µM): 99.5%
- viability, T/C [31]: 42.4%
- viability, T/C [32]: 1.08%

SMILES: CC(C)NCC(C(=O)N1CCN(c2ncnc3c2C(C)CC3O)CC1)c1ccc(Cl)cc1 (stereo not drawn) + CCn1c(-c2cc(N3CCN(C)CC3)cnc2C(C)OC)c2c3cc(ccc31)-c1csc(n1)CC(NC(=O)C1CC1C)C(=O)N1CCCC(N1)C(=O)OCC(C)(C)C2
- IC50 (second compound 0.000949 µM): 1720 nM
- IC50 (second compound 0.003 µM): 1690 nM
- IC50 (second compound 0.00949 µM): 652 nM
- IC50 (second compound 0.03 µM): < 31.6 nM
- IC50 (second compound 0.0949 µM): < 31.6 nM
- IC50 (second compound 0.3 µM): < 31.6 nM
- viability, T/C [1]: 102%
- viability, T/C [2]: 97.5%
- viability, T/C [3]: 105%
- viability, T/C [4]: 80.3%
- viability, T/C [5]: 16%
- viability, T/C [6]: 2.39%
- viability, T/C [7]: 97.7%
- viability, T/C [8]: 102%
- viability, T/C [9]: 106%
- viability, T/C [10]: 82.3%
- viability, T/C [11]: 11.1%
- viability, T/C [12]: 1.27%
- viability, T/C [13]: 109%
- viability, T/C [14]: 115%
- viability, T/C [15]: 109%
- viability, T/C [16]: 15.4%
- viability, T/C [17]: 1.11%
- viability, T/C [18]: 0.51%
- viability, T/C [19]: 42.5%
- viability, T/C [20]: 23.2%
- viability, T/C [21]: 5.92%
- viability, T/C [22]: 1.07%
- viability, T/C [23]: 0.47%
- viability, T/C [24]: 0.39%
- viability, T/C [25]: 5.19%
- viability, T/C [26]: 2.73%
- viability, T/C [27]: 0.72%
- viability, T/C [28]: 0.7%
- viability, T/C [29]: 0.37%
- viability, T/C [30]: 0.17%
- viability, T/C [31]: 2.88%
- viability, T/C [32]: 1.14%
- viability, T/C [33]: 0.58%
- viability, T/C [34]: 0.57%
- viability, T/C [35]: 0.75%
- viability, T/C [36]: 0.24%
